ChEMBL document CHEMBL1145407, “Structure-activity relationships of alpha-ketooxazole inhibitors of fatty acid amide hydrolase” (J Med Chem, 2007)

Columns and labels:
[1] = molecular target: T1, Fatty-acid amide hydrolase 1 (Rattus norvegicus, UniProt P97612); experiment: Inhibition of rat recombinant FAAH expressed in Escherichia coli
T1 sequence (P97612 whole entry): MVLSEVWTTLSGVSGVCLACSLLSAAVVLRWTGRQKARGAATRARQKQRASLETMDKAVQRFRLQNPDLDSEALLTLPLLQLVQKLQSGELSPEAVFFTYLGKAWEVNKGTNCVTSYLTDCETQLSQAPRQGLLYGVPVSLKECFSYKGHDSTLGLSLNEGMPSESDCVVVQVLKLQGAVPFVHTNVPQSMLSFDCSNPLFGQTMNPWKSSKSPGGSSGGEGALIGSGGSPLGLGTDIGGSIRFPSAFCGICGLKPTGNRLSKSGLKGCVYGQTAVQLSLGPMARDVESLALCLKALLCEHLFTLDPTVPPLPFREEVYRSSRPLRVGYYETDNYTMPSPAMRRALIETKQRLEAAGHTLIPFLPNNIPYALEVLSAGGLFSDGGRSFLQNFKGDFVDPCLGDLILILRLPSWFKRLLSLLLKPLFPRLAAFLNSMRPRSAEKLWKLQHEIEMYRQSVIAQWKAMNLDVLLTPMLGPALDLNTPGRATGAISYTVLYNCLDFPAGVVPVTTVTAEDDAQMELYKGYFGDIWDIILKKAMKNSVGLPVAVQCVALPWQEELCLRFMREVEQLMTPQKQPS

[2] = Selectivity for rat recombinant FAAH over KIAA1363
[3] = molecular target: T2, Fatty-acid amide hydrolase 1 (Homo sapiens, UniProt O00519); experiment: Inhibition of human FAAH expressed in COS-7 cells
T2 sequence (O00519 whole entry): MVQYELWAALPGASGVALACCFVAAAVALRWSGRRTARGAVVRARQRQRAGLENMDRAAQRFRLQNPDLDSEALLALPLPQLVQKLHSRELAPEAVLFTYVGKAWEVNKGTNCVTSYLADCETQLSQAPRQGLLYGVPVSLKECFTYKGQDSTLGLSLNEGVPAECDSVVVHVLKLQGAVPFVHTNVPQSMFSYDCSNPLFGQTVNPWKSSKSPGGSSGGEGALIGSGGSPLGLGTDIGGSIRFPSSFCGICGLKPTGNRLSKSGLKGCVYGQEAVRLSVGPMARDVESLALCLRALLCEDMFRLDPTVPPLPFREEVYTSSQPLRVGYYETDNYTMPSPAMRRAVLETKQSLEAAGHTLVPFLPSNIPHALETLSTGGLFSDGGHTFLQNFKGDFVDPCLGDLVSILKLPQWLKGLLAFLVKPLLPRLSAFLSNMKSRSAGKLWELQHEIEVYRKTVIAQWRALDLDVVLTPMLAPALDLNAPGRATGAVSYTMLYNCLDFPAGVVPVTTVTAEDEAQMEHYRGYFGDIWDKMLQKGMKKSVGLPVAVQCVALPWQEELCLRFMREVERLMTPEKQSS

[4] = Selectivity for rat recombinant FAAH over TGH

| SMILES | Ki [1] | Ratio IC50 [2] | Ki [3] | Ratio IC50 [4] |
| --- | --- | --- | --- | --- |
| O=C(CCCCCCc1cccc(Cl)c1Cl)c1ncc(-c2ccccn2)o1 | 0.9 nM | > 14000 | 1.2 nM | 70 |
| CCCCCCc1ccc(CCCCCCC(=O)c2ncc(-c3ccccn3)o2)cc1 | 6.7 nM | > 3300 |  | 1000 |
| O=C(CCCCCCc1cccc(C(F)(F)F)c1)c1ncc(-c2ccccn2)o1 | 1 nM | > 5000 |  | 10 |
| O=C(CCCCCCc1cccnc1)c1ncc(-c2ccccn2)o1 | 32 nM | > 5000 |  | 50 |
| O=C(CCCCCCc1ccc2ccccc2c1)c1ncc(-c2ccccn2)o1 | 11 nM | > 2500 |  | 0.5 |
| O=C(CCCCCCc1ccsc1)c1ncc(-c2ccccn2)o1 | 5.1 nM | > 3300 |  | 27 |
| COC(=O)c1ccc(CCCCCCC(=O)c2ncc(-c3ccccn3)o2)cc1 | 1.5 nM | > 400000 |  | 25000 |
| CS(=O)(=O)c1ccccc1CCCCCCC(=O)c1ncc(-c2ccccn2)o1 | 37 nM | > 1000 |  | 30 |
| COc1ccccc1CCCCCCC(=O)c1ncc(-c2ccccn2)o1 | 5.8 nM | > 10000 |  | 500 |
| CSc1cccc(CCCCCCC(=O)c2ncc(-c3ccccn3)o2)c1 | 4.2 nM | > 10000 |  | 30 |
| O=C(CCCCCCc1cccc(F)c1)c1ncc(-c2ccccn2)o1 | 2.2 nM | > 10000 |  | 100 |
| CS(=O)(=O)c1cccc(CCCCCCC(=O)c2ncc(-c3ccccn3)o2)c1 | 1.3 nM | > 25000 |  | 1000 |
